For the experiment, the target named is T1, Nav1.7 (or SCN9A) channel; HEK cells stably transfected with hSCN9A (Homo sapiens, UniProt Q15858).
T1 construct: expressed in transfected cells
T1 sequence (Q15858 whole entry): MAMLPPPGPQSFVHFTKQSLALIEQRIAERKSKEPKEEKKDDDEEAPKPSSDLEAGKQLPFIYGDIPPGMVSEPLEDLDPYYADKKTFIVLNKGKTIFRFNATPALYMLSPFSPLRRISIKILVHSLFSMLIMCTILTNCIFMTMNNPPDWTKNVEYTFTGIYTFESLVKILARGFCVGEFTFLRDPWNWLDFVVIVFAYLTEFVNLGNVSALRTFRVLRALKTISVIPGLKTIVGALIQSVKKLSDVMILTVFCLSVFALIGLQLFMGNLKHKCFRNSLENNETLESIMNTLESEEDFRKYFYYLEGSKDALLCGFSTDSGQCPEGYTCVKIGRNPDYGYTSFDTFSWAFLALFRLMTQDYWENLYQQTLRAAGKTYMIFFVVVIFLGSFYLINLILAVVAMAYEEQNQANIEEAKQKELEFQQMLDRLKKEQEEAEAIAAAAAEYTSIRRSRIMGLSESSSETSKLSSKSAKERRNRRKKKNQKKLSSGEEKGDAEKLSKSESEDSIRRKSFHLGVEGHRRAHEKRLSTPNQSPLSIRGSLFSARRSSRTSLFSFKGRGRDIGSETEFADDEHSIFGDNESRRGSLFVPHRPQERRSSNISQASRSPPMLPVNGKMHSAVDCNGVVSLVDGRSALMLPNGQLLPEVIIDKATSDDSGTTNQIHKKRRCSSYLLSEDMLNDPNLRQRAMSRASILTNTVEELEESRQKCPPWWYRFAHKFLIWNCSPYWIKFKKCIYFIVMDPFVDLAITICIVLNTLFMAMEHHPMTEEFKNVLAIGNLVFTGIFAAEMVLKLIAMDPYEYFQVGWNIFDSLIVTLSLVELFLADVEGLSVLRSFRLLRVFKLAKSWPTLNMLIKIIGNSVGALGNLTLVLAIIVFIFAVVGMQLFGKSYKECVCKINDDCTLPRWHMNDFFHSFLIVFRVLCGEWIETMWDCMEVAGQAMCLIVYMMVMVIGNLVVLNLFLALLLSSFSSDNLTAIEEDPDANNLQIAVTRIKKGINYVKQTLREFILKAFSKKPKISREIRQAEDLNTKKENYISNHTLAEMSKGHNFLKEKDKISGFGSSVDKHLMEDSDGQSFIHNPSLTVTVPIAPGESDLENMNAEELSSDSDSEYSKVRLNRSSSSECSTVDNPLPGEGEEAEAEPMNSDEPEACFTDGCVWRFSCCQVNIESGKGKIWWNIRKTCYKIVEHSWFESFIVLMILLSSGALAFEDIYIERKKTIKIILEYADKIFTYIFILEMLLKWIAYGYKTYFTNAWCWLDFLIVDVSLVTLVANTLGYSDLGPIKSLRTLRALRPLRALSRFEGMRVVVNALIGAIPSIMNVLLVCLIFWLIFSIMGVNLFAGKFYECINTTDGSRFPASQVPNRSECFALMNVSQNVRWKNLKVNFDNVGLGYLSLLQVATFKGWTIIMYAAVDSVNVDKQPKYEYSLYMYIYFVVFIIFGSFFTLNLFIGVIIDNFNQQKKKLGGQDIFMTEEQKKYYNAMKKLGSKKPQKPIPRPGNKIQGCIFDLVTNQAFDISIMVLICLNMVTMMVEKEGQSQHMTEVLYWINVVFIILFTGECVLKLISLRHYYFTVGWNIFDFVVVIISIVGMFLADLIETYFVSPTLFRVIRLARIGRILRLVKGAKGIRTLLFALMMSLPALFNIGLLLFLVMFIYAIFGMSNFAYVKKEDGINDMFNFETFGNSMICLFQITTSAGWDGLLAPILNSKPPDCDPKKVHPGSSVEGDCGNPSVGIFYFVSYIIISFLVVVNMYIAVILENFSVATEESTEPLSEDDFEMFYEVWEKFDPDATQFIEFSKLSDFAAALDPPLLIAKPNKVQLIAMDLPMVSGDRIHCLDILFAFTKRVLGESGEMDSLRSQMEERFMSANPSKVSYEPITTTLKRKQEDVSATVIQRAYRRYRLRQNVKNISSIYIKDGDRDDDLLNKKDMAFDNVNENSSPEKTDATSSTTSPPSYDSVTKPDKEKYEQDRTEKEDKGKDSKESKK
As to the kind of experiment: Nav1.7 block, PatchXpress 7000 automated whole-cell voltage clamp, estimated IC50 (EIC50). Type of experiment: cell-based. As to conditions: PatchXpress platform; hSCN9A HEK cells held at V1/2 of inactivation; estimated IC50.
In general, IC50 refers to the concentration needed to halve the response being measured. `Cn1ccc(-c2cc(Cl)ccc2Oc2ccc(S(=O)(=O)Nc3nccs3)cc2F)n1` [Example 216, 4-(4-chloro-2-(1-methyl-1H-pyrazol-3-yl)phenoxy)-3-fluoro-N-(thiazol-2-yl)benzenesulfonamide]: the IC50 was 0.91 µM.
In the case of `CC(C)(C)n1nccc1-c1cc(F)ccc1Oc1ccc(S(=O)(=O)Nc2nccs2)cc1F` [Example 217, 4-(2-(1-tert-butyl-1H-pyrazol-5-yl)-4-fluorophenoxy)-3-fluoro-N-(thiazol-2-yl)benzenesulfonamide], the IC50 is 0.51 µM.
As for `O=S(=O)(Nc1nccs1)c1ccc(Oc2ccc(F)cc2-c2ccn[nH]2)c(F)c1` [Example 218, 3-fluoro-4-(4-fluoro-2-(1H-pyrazol-5-yl)phenoxy)-N-(thiazol-2-yl)benzenesulfonamide], the half-inhibitory concentration (IC50) is 0.23 µM.
To `Cn1nccc1-c1cc(Cl)ccc1Oc1ccc(S(=O)(=O)Nc2nccs2)cc1F` [Example 219, 4-(4-chloro-2-(1-methyl-1H-pyrazol-5-yl)phenoxy)-3-fluoro-N-(thiazol-2-yl)benzenesulfonamide] belongs 0.02 µM.
For the compound `O=S(=O)(Nc1nccs1)c1ccc(Oc2ccc(Cl)cc2-c2ccnn2Cc2ccccc2)c(F)c1` [Example 220, 4-(2-(1-benzyl-1H-pyrazol-5-yl)-4-chlorophenoxy)-3-fluoro-N-(thiazol-2-yl)benzenesulfonamide], the IC50 is 0.15 µM.
As for `CCOC(=O)Cn1nccc1-c1cc(F)ccc1Oc1ccc(S(=O)(=O)Nc2nccs2)cc1F` [Example 221, ethyl 2-(5-(5-fluoro-2-(2-fluoro-4-(N-thiazol-2-ylsulfamoyl)phenoxy)phenyl)-1H-pyrazol-1-yl)acetate], the IC50 is 0.45 µM.
Regarding `Cc1ccc(Oc2ccc(S(=O)(=O)Nc3nccs3)cc2F)c(-c2ccnn2C)c1` [Example 222, 3-fluoro-4-(4-methyl-2-(1-methyl-1H-pyrazol-5-yl)phenoxy)-N-(thiazol-2-yl)benzenesulfonamide], the IC50 is 0.06 µM.
Regarding `Cc1ccc(Oc2ccc(S(=O)(=O)Nc3nccs3)cc2F)c(-c2c(C)cnn2C(C)(C)C)c1` [Example 223, 4-(2-(1-tert-butyl-4-methyl-1H-pyrazol-5-yl)-4-methylphenoxy)-3-fluoro-N-(thiazol-2-yl)benzenesulfonamide], the IC50 is 1.51 µM.
For the compound `Cc1ccc(Oc2ccc(S(=O)(=O)Nc3nccs3)cc2F)c(-c2[nH]ncc2C)c1` [Example 224, 3-fluoro-4-(4-methyl-2-(4-methyl-1H-pyrazol-5-yl)phenoxy)-N-(thiazol-2-yl)benzenesulfonamide], the IC50 was 0.77 µM.
For `O=S(=O)(Nc1nccs1)c1ccc(Oc2ccc(F)cc2-c2ccnn2CC(F)(F)F)c(F)c1` [Example 225, 3-fluoro-4-(4-fluoro-2-(1-(2,2,2-trifluoroethyl)-1H-pyrazol-5-yl)phenoxy)-N-(thiazol-2-yl)benzenesulfonamide], the IC50 is 0.43 µM.
Turning to `Cn1nccc1-c1cc(Br)ccc1Oc1ccc(S(=O)(=O)Nc2nccs2)cc1F` [Example 226, 4-(4-bromo-2-(1-methyl-1H-pyrazol-5-yl)phenoxy)-3-fluoro-N-(thiazol-2-yl)benzenesulfonamide], the IC50 was 0.03 µM.
To `O=S(=O)(Nc1nccs1)c1ccc(Oc2ccc(Cl)cc2-c2ccnn2-c2ccccc2)c(F)c1` [Example 227, 4-(4-chloro-2-(1-phenyl-1H-pyrazol-5-yl)phenoxy)-3-fluoro-N-(thiazol-2-yl)benzenesulfonamide] belongs 0.03 µM; to `O=S(=O)(Nc1nccs1)c1ccc(Oc2cc(C(F)(F)F)nn2-c2cc(F)ccc2F)c(F)c1` [Example 228, 4-[2-(2,5-difluoro-phenyl)-5-trifluoromethyl-2H-pyrazol-3-yloxy]-3-fluoro-N-thiazol-2-yl-benzenesulfonamide], 0.57 µM; to `O=S(=O)(Nc1nccs1)c1ccc(Oc2cc(C(F)(F)F)nn2-c2ccccc2)c(F)c1` [Example 229, 3-fluoro-4-(2-phenyl-5-trifluoromethyl-2H-pyrazol-3-yloxy)-N-thiazol-2-yl-benzenesulfonamide], 0.12 µM.
With `O=S(=O)(Nc1nccs1)c1ccc(Oc2cc(C(F)(F)F)nn2-c2ccccc2F)c(F)c1` [Example 230, 3-fluoro-4-[2-(2-fluoro-phenyl)-5-trifluoromethyl-2H-pyrazol-3-yloxy]-N-thiazol-2-yl-benzenesulfonamide], the IC50 was 0.71 µM.
On to `Cc1cc(Oc2ccc(S(=O)(=O)Nc3nccs3)cc2F)n(-c2ccccc2)n1` [Example 231, 3-fluoro-4-(5-methyl-2-phenyl-2H-pyrazol-3-yloxy)-N-thiazol-2-yl-benzenesulfonamide], for which the IC50 is 0.47 µM.
For `O=S(=O)(Nc1nccs1)c1ccc(Oc2ccn(Cc3ccc(Cl)cc3)n2)c(F)c1` [Example 232, 4-[1-(4-chloro-benzyl)-1H-pyrazol-3-yloxy]-3-fluoro-N-thiazol-2-yl-benzenesulfonamide], the IC50 was 1.87 µM.
For `Cn1cc(-c2ccccc2)c(Oc2ccc(S(=O)(=O)Nc3nccs3)cc2F)n1` [Example 233, 3-fluoro-4-(1-methyl-4-phenyl-1H-pyrazol-3-yloxy)-N-(thiazol-2-yl)benzenesulfonamide], the IC50 is 3.49 µM.
To `COCc1ccc(Oc2ccc(S(=O)(=O)Nc3nccs3)cc2F)c(-c2ccnn2C)c1` [Example 234, 3-fluoro-4-(4-(methoxymethyl)-2-(1-methyl-1H-pyrazol-5-yl)phenoxy)-N-(thiazol-2-yl)benzenesulfonamide] belongs 0.09 µM; to `O=S(=O)(Nc1nccs1)c1ccc(Oc2cnn(Cc3ccc(Cl)cc3)c2)c(F)c1` [Example 235, 4-(1-(4-chlorobenzyl)-1H-pyrazol-4-yloxy)-3-fluoro-N-(thiazol-2-yl)benzenesulfonamide], 0.76 µM; to `O=S(=O)(Nc1nccs1)c1ccc(Oc2ncncc2-c2ccccc2)c(F)c1` [Example 236, 3-fluoro-4-(5-phenylpyrimidin-4-yloxy)-N-(thiazol-2-yl)benzenesulfonamide], 13.9 µM.
On to `O=S(=O)(Nc1nccs1)c1ccc(Oc2ccc(F)cc2-c2ccnn2CCO)c(F)c1` [Example 237, 3-fluoro-4-{4-fluoro-2-[1-(2-hydroxyethyl)-1H-pyrazol-5-yl]phenoxy}-N-1,3-thiazol-2-ylbenzenesulfonamide], for which the IC50 is 0.21 µM.
For the compound `O=C(O)Cn1nccc1-c1cc(F)ccc1Oc1ccc(S(=O)(=O)Nc2nccs2)cc1F` [Example 238, 2-(5-(5-fluoro-2-(2-fluoro-4-(N-thiazol-2-ylsulfamoyl)phenoxy)phenyl)-1H-pyrazol-1-yl)acetic acid], the IC50 is 2.21 µM.
In the case of `CN(C)C(=O)Cn1nccc1-c1cc(F)ccc1Oc1ccc(S(=O)(=O)Nc2nccs2)cc1F` [Example 239, 2-(5-(5-fluoro-2-(2-fluoro-4-(N-thiazol-2-ylsulfamoyl)phenoxy)phenyl)-1H-pyrazol-1-yl)-N,N-dimethylacetamide], the IC50 is 1.9 µM.
To `CC(C)(C)n1nc(Cc2ccc(Cl)cc2)cc1Oc1ccc(S(=O)(=O)Nc2nccs2)cc1F` [Example 240, 4-[2-tert-butyl-5-(4-chloro-benzyl)-2H-pyrazol-3-yloxy]-3-fluoro-N-thiazol-2-yl-benzenesulfonamide] belongs 1.98 µM; to `Cn1nc(Cc2ccc(Cl)cc2)cc1Oc1ccc(S(=O)(=O)Nc2nccs2)cc1F` [Example 241, 4-[5-(4-chloro-benzyl)-2-methyl-2H-pyrazol-3-yloxy]-3-fluoro-N-thiazol-2-yl-benzenesulfonamide], 1.47 µM.
Take `O=S(=O)(Nc1nccs1)c1ccc(Oc2ccccc2-c2ccccc2)c(F)c1` [Example 242, 4-(biphenyl-2-yloxy)-3-fluoro-N-thiazol-2-yl-benzenesulfonamide]: the IC50 was 0.12 µM.
Regarding `O=S(=O)(Nc1nccs1)c1ccc(Oc2cc(Cc3ccc(Cl)cc3)n[nH]2)c(F)c1` [Example 243, 4-(3-(4-chlorobenzyl)-1H-pyrazol-5-yloxy)-3-fluoro-N-(thiazol-2-yl)benzenesulfonamide], the IC50 was 3.86 µM.
As for `Cc1c(Cl)ccc(Oc2ccc(S(=O)(=O)Nc3nccs3)cc2F)c1-c1nnco1` [Example 244, 4-(4-chloro-3-methyl-2-[1,3,4]oxadiazol-2-yl-phenoxy)-3-fluoro-N-thiazol-2-yl-benzenesulfonamide], the IC50 was 1.79 µM.
With `CC(C)(C)n1nc(C(F)(F)F)cc1-c1ccc(Oc2ccc(S(=O)(=O)Nc3nccs3)cc2F)cc1` [Example 245, 4-[4-(2-tert-butyl-5-trifluoromethyl-2H-pyrazol-3-yl)-phenoxy]-3-fluoro-N-thiazol-2-yl-benzenesulfonamide], the IC50 was 1.04 µM.
For `O=S(=O)(Nc1nccs1)c1ccc(Oc2ccc(-c3cc(C(F)(F)F)n[nH]3)cc2)c(F)c1` [Example 246, 3-fluoro-N-(thiazol-2-yl)-4-(4-(3-(trifluoromethyl)-1H-pyrazol-5-yl)phenoxy)benzenesulfonamide], the IC50 is 3.76 µM.
To `O=S(=O)(Nc1nccs1)c1ccc(Oc2ccc(-c3ccccc3)cc2)c(F)c1` [Example 247, 4-(biphenyl-4-yloxy)-3-fluoro-N-thiazol-2-yl-benzenesulfonamide] belongs 2.95 µM; to `Cc1cc(C)n(-c2ccc(Oc3ccc(S(=O)(=O)Nc4nccs4)cc3F)cc2)n1` [Example 248, 4-[4-(3,5-dimethyl-pyrazol-1-yl)-phenoxy]-3-fluoro-N-thiazol-2-yl-benzenesulfonamide], 2.78 µM; to `NC(=O)c1cc(S(=O)(=O)Nc2nccs2)ccc1Oc1cnn(Cc2ccc(Cl)cc2)c1` [Example 249, 2-(1-(4-chlorobenzyl)-1H-pyrazol-4-yloxy)-5-(N-thiazol-2-ylsulfamoyl)benzamide], 2.4 µM.
Under `NC(=O)c1cc(S(=O)(=O)Nc2nccs2)ccc1Oc1ccccc1-c1ccccc1` [Example 250, 2-(biphenyl-2-yloxy)-5-(N-thiazol-2-ylsulfamoyl)benzamide] stands 1.85 µM; under `O=S(=O)(Nc1nncs1)c1ccc(Oc2ccccc2-c2ccccc2)c(F)c1` [Example 251, 4-(biphenyl-2-yloxy)-3-fluoro-N-(1,3,4-thiadiazol-2-yl)benzenesulfonamide], 2.54 µM.

These data come from patent publication US8541588B2, “Sulfonamide derivatives” (Pfizer Limited, priority 2009, dated 2013).
